Assay results as given in PubChem BioAssay AID248 (DTP/NCI, 2004).
Values joined by “and” are separate entries in the source; they are usually repeats but may differ in a detail not shown here. Equal values may be shown once. Toxic doses and inconclusive results are not listed. Cut-off read from the data, not from the text of the source: active = T/C of 150% or more; inactive = T/C below 125%.

System: L1210 leukemia ip in BDF1 mice, survival T/C
Test: NCI In Vivo Anticancer Drug Screen. Data for tumor model L1210 Leukemia (intraperitoneal) in B6D2F1 (BDF1) mice
Settings: endpoint: mean survival time, higher = longer survival
Method in brief: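 Transplanted-tumor mice were given test agent; controls received vehicle only. Survival readings from the two groups were divided (treated over control).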

[1] = dose: 100.0 mg/kg/injection, schedule: Q01DX001 (ip), vehicle: carboxymethylcellulose (CMC)
[2] = dose: 100.0 mg/kg/injection, schedule: Q01DX009 (ip), vehicle: Klucel (hydroxypropylcellulose) (HPC)
[3] = dose: 100.0 mg/kg/injection, schedule: Q04DX003 (ip), vehicle: Klucel (hydroxypropylcellulose) (HPC)
[4] = dose: 200.0 mg/kg/injection, schedule: Q01DX009 (ip), vehicle: Klucel (hydroxypropylcellulose) (HPC)
[5] = dose: 200.0 mg/kg/injection, schedule: Q04DX003 (ip), vehicle: Klucel (hydroxypropylcellulose) (HPC)
[6] = dose: 400.0 mg/kg/injection, schedule: Q01DX009 (ip), vehicle: Klucel (hydroxypropylcellulose) (HPC)
[7] = dose: 400.0 mg/kg/injection, schedule: Q04DX003 (ip), vehicle: Klucel (hydroxypropylcellulose) (HPC)
[8] = dose: 100.0 mg/kg/injection, schedule: Q01DX009 (ip), vehicle: saline with Tween-80
[9] = dose: 200.0 mg/kg/injection, schedule: Q01DX009 (ip), vehicle: saline with Tween-80
[10] = dose: 400.0 mg/kg/injection, schedule: Q01DX009 (ip), vehicle: saline with Tween-80
[11] = dose: 400.0 mg/kg/injection, schedule: Q01DX009 (ip), vehicle: gum acacia
[12] = dose: 50.0 mg/kg/injection, schedule: Q01DX009 (ip), vehicle: saline
[13] = dose: 100.0 mg/kg/injection, schedule: Q01DX009 (ip), vehicle: saline
[14] = dose: 100.0 mg/kg/injection, schedule: Q04DX003 (ip), vehicle: saline
[15] = dose: 200.0 mg/kg/injection, schedule: Q01DX009 (ip), vehicle: saline
[16] = dose: 12.5 mg/kg/injection, schedule: Q04DX003 (ip), vehicle: saline
[17] = dose: 25.0 mg/kg/injection, schedule: Q04DX003 (ip), vehicle: saline
[18] = dose: 50.0 mg/kg/injection, schedule: Q04DX003 (ip), vehicle: saline

Measured: T/C

CC(CN1c2ccccc2Sc2ccc(Cl)cc21)N(C)CCCl (stereo not drawn)
inactive: dose: 75.0 mg/kg/injection, schedule: Q01DX001 (ip), vehicle: carboxymethylcellulose (CMC) 106 % of control and 114 % of control

CC(C)CN1CCC(=O)NC1=O
inactive: dose: 100.0 mg/kg/injection, schedule: Q01DX Z (ip), vehicle: saline 100 % of control | dose: 200.0 mg/kg/injection, schedule: Q01DX Z (ip), vehicle: saline 94 % of control

O=NN(CCCl)C(=O)Nc1ccccc1Cl
inactive: [1] 87 % of control

Cc1ccc(C(=O)N/N=C/c2ccc(Cl)cc2Cl)cc1
inactive: dose: 100.0 mg/kg/injection, schedule: Q04DX002 (ip), vehicle: Klucel (hydroxypropylcellulose) (HPC) 100 % of control | dose: 200.0 mg/kg/injection, schedule: Q04DX002 (ip), vehicle: Klucel (hydroxypropylcellulose) (HPC) 95 % of control | dose: 400.0 mg/kg/injection, schedule: Q04DX002 (ip), vehicle: Klucel (hydroxypropylcellulose) (HPC) 95 % of control

CCN=C(c1ccc(NC(=O)c2ccc(C(=O)Nc3ccc(C(=NCC)N(CC)CC)cc3)cc2)cc1)N(CC)CC
inactive: dose: 0.94 mg/kg/injection, schedule: Q01DX Z (ip), vehicle: carboxymethylcellulose (CMC) 94 % of control | dose: 1.87 mg/kg/injection, schedule: Q01DX Z (ip), vehicle: carboxymethylcellulose (CMC) 95 % of control

Cc1ccc(NC(=S)NC(=O)C(C)Oc2ccccc2)cc1Cl (stereo not drawn)
inactive: [2] 94 % of control | [3] 100 % of control | [4] 101 % of control | [5] 101 % of control | [6] 101 % of control | [7] 109 % of control

Cc1cccc(CNC(=O)NCCCl)c1C
inactive: dose: 100.0 mg/kg/injection, schedule: Q01DX001 (ip), vehicle: Klucel (hydroxypropylcellulose) (HPC) 100 % of control | dose: 200.0 mg/kg/injection, schedule: Q01DX001 (ip), vehicle: Klucel (hydroxypropylcellulose) (HPC) 97 % of control | dose: 400.0 mg/kg/injection, schedule: Q01DX001 (ip), vehicle: Klucel (hydroxypropylcellulose) (HPC) 95 % of control

COc1ccc(/C=C/C(=O)c2ccc3c(c2)OCO3)cc1OC
inactive: [8] 101 % of control | [9] 94 % of control | [10] 95 % of control

O=P(c1ccccc1)(c1ccccc1)C(Nc1ccc(Cl)cc1)c1ccco1 (stereo not drawn)
inactive: [11] 92 % of control

COC(=O)C(C)CN1CCCCC1 (stereo not drawn)
inactive: [12] 101 % of control | [13] 97 % of control | [14] 102 % of control | [15] 101 % of control | dose: 200.0 mg/kg/injection, schedule: Q04DX003 (ip), vehicle: saline 105 % of control

Cc1cc(NCC2CCNCC2)nc(/N=C(\N)Nc2ccc(Cl)c(Cl)c2)n1
inactive: [16] 102 % of control | [17] 113 % of control | [18] 102 % of control | [14] 106 % of control

C=CCNc1ccnc(SCc2ccccc2)n1
inactive: dose: 100.0 mg/kg/injection, schedule: Q01DX009 (ip), vehicle: gum acacia 93 % of control | dose: 100.0 mg/kg/injection, schedule: Q04DX003 (ip), vehicle: gum acacia 97 % of control | dose: 200.0 mg/kg/injection, schedule: Q01DX009 (ip), vehicle: gum acacia 110 % of control | dose: 200.0 mg/kg/injection, schedule: Q04DX003 (ip), vehicle: gum acacia 97 % of control | [11] 97 % of control | dose: 400.0 mg/kg/injection, schedule: Q04DX003 (ip), vehicle: gum acacia 92 % of control

CC(=O)CCNc1ccc(O)c2c1C(=O)c1ccccc1C2=O
inactive: [1] 96 % of control | dose: 200.0 mg/kg/injection, schedule: Q01DX001 (ip), vehicle: carboxymethylcellulose (CMC) 89 % of control | dose: 400.0 mg/kg/injection, schedule: Q01DX001 (ip), vehicle: carboxymethylcellulose (CMC) 94 % of control

CCOC(=O)c1ccc(NC(=O)Nc2ccccc2Cl)cc1
inactive: [8] 93 % of control | dose: 100.0 mg/kg/injection, schedule: Q04DX003 (ip), vehicle: saline with Tween-80 91 % of control | [9] 87 % of control | dose: 200.0 mg/kg/injection, schedule: Q04DX003 (ip), vehicle: saline with Tween-80 93 % of control | [10] 92 % of control | dose: 400.0 mg/kg/injection, schedule: Q04DX003 (ip), vehicle: saline with Tween-80 94 % of control

Cc1ccc(NC(=O)c2ccccc2Cl)cc1Cl
inactive: dose: 25.0 mg/kg/injection, schedule: Q04DX004 (ip), vehicle: Klucel (hydroxypropylcellulose) (HPC) 89 % of control | dose: 50.0 mg/kg/injection, schedule: Q04DX004 (ip), vehicle: Klucel (hydroxypropylcellulose) (HPC) 98 % of control | [2] 96 % of control | [13] 110 % of control | [3] 95 % of control | [14] 120 % of control | dose: 100.0 mg/kg/injection, schedule: Q04DX004 (ip), vehicle: Klucel (hydroxypropylcellulose) (HPC) 88 % of control | dose: 135.0 mg/kg/injection, schedule: Q04DX004 (ip), vehicle: Klucel (hydroxypropylcellulose) (HPC) 96 % of control | [4] 94 % of control | [15] 102 % of control | [5] 95 % of control | [6] 98 % of control | dose: 400.0 mg/kg/injection, schedule: Q01DX009 (ip), vehicle: saline 102 % of control | [7] 96 % of control | dose: 400.0 mg/kg/injection, schedule: Q04DX003 (ip), vehicle: saline 115 % of control

CC1CCOC(C)(CCl)O1 (stereo not drawn)
inactive: dose: 100.0 mg/kg/injection, schedule: Q04DX002 (ip), vehicle: saline with Tween-80 98 % of control | dose: 200.0 mg/kg/injection, schedule: Q04DX002 (ip), vehicle: saline with Tween-80 95 % of control | dose: 400.0 mg/kg/injection, schedule: Q04DX002 (ip), vehicle: saline with Tween-80 98 % of control

CCC(CO)NC(=O)/C=C/c1ccccc1Cl (stereo not drawn)
inactive: dose: 100.0 mg/kg/injection, schedule: Q01DX001 (ip), vehicle: saline with Tween-80 95 % of control | dose: 200.0 mg/kg/injection, schedule: Q01DX001 (ip), vehicle: saline with Tween-80 100 % of control | dose: 400.0 mg/kg/injection, schedule: Q01DX001 (ip), vehicle: saline with Tween-80 92 % of control

Cc1cc(Oc2ccc(Cl)cc2NC(=O)Nc2ccc(Cl)c(Cl)c2)c(S(=O)(=O)O)cc1Cl
inactive: [16] 103 % of control | dose: 25.0 mg/kg/injection, schedule: Q01DX009 (ip), vehicle: saline 103 % of control | [17] 105 % of control | [12] 95 % of control | [18] 103 % of control | [13] 101 % of control | [14] 97 % of control

O=C(N/C=C/NC(=O)NCc1ccco1)NCc1ccco1
inactive: [2] 97 % of control | [4] 87 % of control

C/C=C/c1nc2c([nH]1)c(=O)n(C)c(=O)n2C
inactive: dose: 50.0 mg/kg/injection, schedule: Q01DX001 (ip), vehicle: saline 107 % of control | dose: 100.0 mg/kg/injection, schedule: Q01DX001 (ip), vehicle: saline 107 % of control | dose: 200.0 mg/kg/injection, schedule: Q01DX001 (ip), vehicle: saline 104 % of control | dose: 400.0 mg/kg/injection, schedule: Q01DX001 (ip), vehicle: saline 98 % of control

Nc1nc(-c2cccs2)cc(C(F)(F)F)n1
inactive: [3] 94 % of control | [5] 94 % of control | [7] 102 % of control
